From ChEMBL document CHEMBL5252555, “Antimicrobial Polyketides from the Marine-Derived Fungus Spiromastix sp. SCSIO F190” (J Nat Prod, 2023)
Active and inactive are the calls of the source. The calls are words filed in the database; no cut-off is given here.

Key:
[1] = system: HepG2; test: Cytotoxicity against human HepG2 cells incubated for 48 hrs by CCK-8 assay; format: functional, cell-based
[2] = system: HeLa; test: Cytotoxicity against human HeLa cells incubated for 48 hrs by CCK-8 assay; format: functional, cell-based
[3] = system: Staphylococcus aureus; test: Antibacterial activity against Staphylococcus aureus ATCC 29213 assessed as inhibition of bacterial growth incubated for 18 hrs by broth microdilution method; format: functional
[4] = system: Staphylococcus aureus; test: Antibacterial activity against Staphylococcus aureus 16339 assessed as inhibition of bacterial growth incubated for 18 hrs by broth microdilution method; format: functional
[5] = system: Staphylococcus aureus; test: Antibacterial activity against Staphylococcus aureus 1862 assessed as inhibition of bacterial growth incubated for 18 hrs by broth microdilution method; format: functional
[6] = system: Staphylococcus aureus; test: Antibacterial activity against Staphylococcus aureus 3090 assessed as inhibition of bacterial growth incubated for 18 hrs by broth microdilution method; format: functional
[7] = system: Staphylococcus aureus; test: Antibacterial activity against Staphylococcus aureus 991 assessed as inhibition of bacterial growth incubated for 18 hrs by broth microdilution method; format: functional
[8] = system: Staphylococcus aureus; test: Antibacterial activity against Staphylococcus aureus 669 assessed as inhibition of bacterial growth incubated for 18 hrs by broth microdilution method; format: functional
[9] = system: Staphylococcus aureus; test: Antibacterial activity against Staphylococcus aureus 745324 assessed as inhibition of bacterial growth incubated for 18 hrs by broth microdilution method; format: functional
[10] = system: Staphylococcus aureus; test: Antibacterial activity against Staphylococcus aureus 16162 assessed as inhibition of bacterial growth incubated for 18 hrs by broth microdilution method; format: functional
[11] = system: Enterococcus faecalis; test: Antibacterial activity against Enterococcus faecalis ATCC 29212 assessed as inhibition of bacterial growth incubated for 18 hrs by broth microdilution method; format: functional
[12] = system: Staphylococcus aureus; test: Antibacterial activity against Staphylococcus aureus GDE4P037P assessed as inhibition of bacterial growth incubated for 18 hrs by broth microdilution method; format: functional
[13] = system: Enterococcus faecalis; test: Antibacterial activity against Enterococcus faecalis 36950 assessed as inhibition of bacterial growth incubated for 18 hrs by broth microdilution method; format: functional
[14] = system: Micrococcus luteus; test: Antibacterial activity against Micrococcus luteus ML01 assessed as inhibition of bacterial growth incubated for 18 hrs by broth microdilution method; format: functional
[15] = system: Staphylococcus simulans; test: Antibacterial activity against Staphylococcus simulans AKA1 assessed as inhibition of bacterial growth incubated for 18 hrs by broth microdilution method; format: functional
[16] = system: Enterococcus faecium; test: Antibacterial activity against Enterococcus faecium 36235 assessed as inhibition of bacterial growth incubated for 18 hrs by broth microdilution method; format: functional
[17] = system: Bacillus subtilis; test: Antibacterial activity against Bacillus subtilis BS01 assessed as inhibition of bacterial growth incubated for 18 hrs by broth microdilution method; format: functional
[18] = system: Enterococcus faecium; test: Antibacterial activity against Enterococcus faecium 35682 assessed as inhibition of bacterial growth incubated for 18 hrs by broth microdilution method; format: functional
[19] = system: Enterococcus gallinarum; test: Antibacterial activity against Enterococcus gallinarum 5F52C assessed as inhibition of bacterial growth incubated for 18 hrs by broth microdilution method; format: functional
[20] = system: Enterococcus faecium; test: Antibacterial activity against Enterococcus faecium 36711 assessed as inhibition of bacterial growth incubated for 18 hrs by broth microdilution method; format: functional
[21] = system: Staphylococcus aureus; test: Antibacterial activity against Staphylococcus aureus 718306 assessed as inhibition of bacterial growth incubated for 18 hrs by broth microdilution method; format: functional
[22] = system: Staphylococcus aureus; test: Antibacterial activity against Staphylococcus aureus 6917 assessed as inhibition of bacterial growth incubated for 18 hrs by broth microdilution method; format: functional
[23] = system: Staphylococcus aureus; test: Antibacterial activity against methicillin-resistant Staphylococcus aureus assessed as inhibition of bacterial growth incubated for 18 hrs by broth microdilution method; format: functional
[24] = Cytotoxicity against human LX2 cells incubated for 48 hrs by CCK-8 assay; format: toxicity, cell-based; conditions: lx-2, 48 h
[25] = system: RBE; test: Cytotoxicity against human RBE cells incubated for 48 hrs by CCK-8 assay; format: functional, cell-based
[26] = system: HCT-116; test: Cytotoxicity against human HCT-116 cells incubated for 48 hrs by CCK-8 assay; format: functional, cell-based
[27] = system: MCF7; test: Cytotoxicity against human MCF7 cells incubated for 48 hrs by CCK-8 assay; format: functional, cell-based
[28] = system: A549; test: Cytotoxicity against human A549 cells incubated for 48 hrs by CCK-8 assay; format: functional, cell-based
[29] = system: HUVEC; test: Cytotoxicity against HUVEC cells incubated for 48 hrs by CCK-8 assay; format: toxicity, cell-based; conditions: human

Compound: CCCCC/C=C1/C(=O)C(CC=C(C)C)=C(C)C1O (centres undefined)
- Activity [1]: inactive
- Activity [2]: inactive
- MIC [3]: > 128 µg/mL
- MIC [4]: > 128 µg/mL
- MIC [5]: > 128 µg/mL
- MIC [6]: > 128 µg/mL
- MIC [7]: > 128 µg/mL
- MIC [8]: > 128 µg/mL
- MIC [9]: > 128 µg/mL
- MIC [10]: > 128 µg/mL
- MIC [11]: > 128 µg/mL
- MIC [12]: > 128 µg/mL
- MIC [13]: > 128 µg/mL
- MIC [14]: > 128 µg/mL
- MIC [15]: > 128 µg/mL
- MIC [16]: > 128 µg/mL
- MIC [17]: > 128 µg/mL
- MIC [18]: > 128 µg/mL
- MIC [19]: > 128 µg/mL
- MIC [20]: > 128 µg/mL
- MIC [21]: > 128 µg/mL
- MIC [22]: > 128 µg/mL
- MIC [23]: > 128 µg/mL
- Activity [24]: Non-Toxic
- Activity [25]: inactive
- Activity [26]: inactive
- Activity [27]: inactive
- Activity [28]: inactive
- Activity [29]: Non-Toxic
